# Columns and labels:
# [1] = system: antibodies in sera from SARS patients (sera 1a, 1b, 2, 6, 37, 62, London, SARS-yellow, SARS-green); assay type: binding, human; design: Binding of serum 6 to linear peptides of protein X1 of SARS-CoV Urbani / Binding of serum 37 to linear peptides of protein X1 of SARS-CoV Urbani / Binding of serum 6 to looped/cyclic peptide (PEPSCAN-ELISA) / Binding of serum 37 to looped/cyclic peptide (PEPSCAN-ELISA) / Binding of serum 37 to looped/cyclic peptides of protein X1 of SARS-CoV Urbani / Binding of serum 6 to linear peptides of protein X2 / Binding of serum 37 to linear peptides of protein X2 / Binding of serum 37 to looped/cyclic peptides of protein X2 of SARS-CoV Urbani / Binding of serum 6 to linear peptides of protein M of SARS-CoV Urbani / Binding of serum 37 to linear peptides of protein M of SARS-CoV Urbani / Binding of serum 6 to looped/cyclic peptides of protein M of SARS-CoV Urbani / Binding of serum 37 to looped/cyclic peptides of protein M of SARS-CoV Urbani / Binding of serum 6 to linear peptides of protein X3 of SARS-CoV Urbani / Binding of serum 37 to linear peptides of protein X3 of SARS-CoV Urbani / Binding of serum 37 to looped/cyclic peptides of protein X3 of SARS-CoV Urbani / Binding of serum 6 to linear peptides of protein X4 of SARS-CoV Urbani / Binding of serum 37 to linear peptides of protein X4 of SARS-CoV Urbani / Binding of serum 37 to looped/cyclic peptides of protein X4 of SARS-CoV Urbani / Binding of serum 6 to linear peptides of protein X5 of SARS-CoV Urbani / Binding of serum 37 to linear peptides of protein X5 of SARS-CoV Urbani / Binding of serum 37 to looped/cyclic peptides of protein X5 of SARS-CoV Urbani / Binding of serum 6 to linear peptides of protein N of SARS-CoV Urbani / Binding of serum 37 to linear peptides of protein N of SARS-CoV Urbani / Binding of serum 6 to linear peptide (PEPSCAN-ELISA) / Binding of serum 1a to looped/cyclic peptides of protein N of SARS-CoV Urbani / Binding of serum 1b to looped/cyclic peptides of protein N of SARS-CoV Urbani / Binding of serum 2 to looped/cyclic peptides of protein N of SARS-CoV Urbani / Binding of serum 6 to looped/cyclic peptides of protein N of SARS-CoV Urbani / Binding of serum 37 to looped/cyclic peptides of protein N of SARS-CoV Urbani / Binding of serum 62 to looped/cyclic peptides of protein N of SARS-CoV Urbani / Binding of serum London to looped/cyclic peptides of protein N of SARS-CoV Urbani / Binding of serum SARS-green to looped/cyclic peptides of protein N of SARS-CoV Urbani: unit not given here
# [2] = system: rabbit serum obtained by immunizing a rabbit with the SARS-CoV strain Frankfurt 1; assay type: binding; design: Binding of a rabbit serum to linear peptides / Binding of a rabbit serum to looped peptides / Rabbit serum linear peptides / Rabbit serum looped peptides / Binding of a rabbit serum to linear peptides of protein N of SARS-CoV Urbani (Rabbit serum linear peptides) / Binding of a rabbit serum to looped/cyclic peptides of protein N of SARS-CoV Urbani (Rabbit serum looped peptides): unit not given here
# [3] = system: control sera (pooled serum of ten healthy LUMC hospital workers; commercial negative donor pooled serum from the Dutch bloodbank); assay type: binding, human; design: Binding of Control serum LUMC to linear peptides / Binding of Control serum Blood-bank to linear peptides / Binding of Control serum LUMC to looped peptides / Binding of Control Serum Blood-Bank to Looped peptides / Binding of Control serum LUMC to linear peptides of the protein M of SARS-CoV Urbani / Binding of Control serum Blood-bank to linear peptides of the protein M of SARS-CoV Urbani / Binding of Control serum LUMC to looped peptides of the protein M of SARS-CoV Urbani / Binding of Control Serum Blood-Bank to Looped peptides of the protein M of SARS-CoV Urbani: unit not given here
sequence,measurement,setting,value
KDLPKEITVATSRTL,Binding of serum 1a to linear peptides of protein M of SARS-CoV Urbani,[1],0.7
same,Binding of serum 1a to looped/cyclic peptides of protein M of SARS-CoV Urbani,[1],0.6
same,Binding of serum 1b to linear peptides of protein M of SARS-CoV Urbani,[1],0.6
same,Binding of serum 1b to looped/cyclic peptides of protein M of SARS-CoV Urbani,[1],0.6
same,Binding of serum 2 to linear peptides of protein M of SARS-CoV Urbani,[1],0.6
same,Binding of serum 2 to looped/cyclic peptides of protein M of SARS-CoV Urbani,[1],0.7
same,Binding of serum 6 to linear peptides of protein M of SARS-CoV Urbani,[1],0.5
same,Binding of serum 6 to looped/cyclic peptides of protein M of SARS-CoV Urbani,[1],1.1
same,Binding of serum 37 to linear peptides of protein M of SARS-CoV Urbani,[1],0.5
same,Binding of serum 37 to looped/cyclic peptides of protein M of SARS-CoV Urbani,[1],0.6
same,Binding of serum 62 to linear peptides of protein M of SARS-CoV Urbani,[1],0.5
same,Binding of serum 62 to looped/cyclic peptides of protein M of SARS-CoV Urbani,[1],0.6
same,Binding of serum London to linear peptides of protein M of SARS-CoV Urbani,[1],0.3
same,Binding of serum London to looped/cyclic peptides of protein M of SARS-CoV Urbani,[1],1.1
same,Binding of serum SARS-green to linear peptides of protein M of SARS-CoV Urbani,[1],0.5
same,Binding of serum SARS-green to looped/cyclic peptides of protein M of SARS-CoV Urbani,[1],0.3
same,Binding of serum SARS-yellow to linear peptides of protein M of SARS-CoV Urbani,[1],0.2
same,Binding of serum SARS-yellow to looped/cyclic peptides of protein M of SARS-CoV Urbani,[1],0.9
same,Rabbit serum linear peptides,[2],0.2
same,Rabbit serum looped peptides,[2],0.3
same,Binding of Control Serum Blood-Bank to Looped peptides of the protein M of SARS-CoV Urbani,[3],0.6
same,Binding of Control serum Blood-bank to linear peptides of the protein M of SARS-CoV Urbani,[3],0.7
same,Binding of Control serum LUMC to linear peptides of the protein M of SARS-CoV Urbani,[3],0.6
same,Binding of Control serum LUMC to looped peptides of the protein M of SARS-CoV Urbani,[3],0.8
HLLLVAAGMEAQFLY,Binding of serum 1a to linear peptides of protein X1 of SARS-CoV Urbani,[1],0.9
same,Binding of serum 1a to looped/cyclic peptide (PEPSCAN-ELISA),[1],0.5
same,Binding of serum 1b to linear peptides of protein X1 of SARS-CoV Urbani,[1],0.7
same,Binding of serum 1b to looped/cyclic peptide (PEPSCAN-ELISA),[1],0.6
same,Binding of serum 2 to linear peptides of protein X1 of SARS-CoV Urbani,[1],0.6
same,Binding of serum 2 to looped/cyclic peptide (PEPSCAN-ELISA),[1],0.6
same,Binding of serum 6 to linear peptides of protein X1 of SARS-CoV Urbani,[1],0.5
same,Binding of serum 6 to looped/cyclic peptide (PEPSCAN-ELISA),[1],0.1
same,Binding of serum 37 to linear peptides of protein X1 of SARS-CoV Urbani,[1],0.7
same,Binding of serum 37 to looped/cyclic peptide (PEPSCAN-ELISA),[1],0.6
same,Binding of serum 62 to linear peptides of protein X1 of SARS-CoV Urbani,[1],0.7
same,Binding of serum 62 to looped/cyclic peptide (PEPSCAN-ELISA),[1],0.6
same,Binding of serum London to linear peptides of protein X1 of SARS-CoV Urbani,[1],0.3
same,Binding of serum London to looped/cyclic peptide (PEPSCAN-ELISA),[1],0.2
same,Binding of serum SARS-green to linear peptides of protein X1 of SARS-CoV Urbani,[1],0.2
same,Binding of serum SARS-green to looped/cyclic peptide (PEPSCAN-ELISA),[1],0.4
same,Binding of serum SARS-yellow to linear peptides of protein X1 of SARS-CoV Urbani,[1],0.6
same,Binding of serum SARS-yellow to looped/cyclic peptide (PEPSCAN-ELISA),[1],0.3
same,Binding of a rabbit serum to linear peptides,[2],0.5
same,Binding of a rabbit serum to looped peptides,[2],0.4
same,Binding of Control Serum Blood-Bank to Looped peptides,[3],0.6
same,Binding of Control serum Blood-bank to linear peptides,[3],0.6
same,Binding of Control serum LUMC to linear peptides,[3],0.7
same,Binding of Control serum LUMC to looped peptides,[3],0.4
LKILVRYNTRGNTYS,Binding of serum 1a to linear peptides of protein X5 of SARS-CoV Urbani,[1],0.7
same,Binding of serum 1a to looped/cyclic peptides of protein X5 of SARS-CoV Urbani,[1],0.5
same,Binding of serum 1b to linear peptides of protein X5 of SARS-CoV Urbani,[1],0.6
same,Binding of serum 1b to looped/cyclic peptides of protein X5 of SARS-CoV Urbani,[1],0.4
same,Binding of serum 2 to linear peptides of protein X5 of SARS-CoV Urbani,[1],0.8
same,Binding of serum 2 to looped/cyclic peptides of protein X5 of SARS-CoV Urbani,[1],0.6
same,Binding of serum 6 to linear peptides of protein X5 of SARS-CoV Urbani,[1],0.8
same,Binding of serum 6 to looped/cyclic peptides of protein X5 of SARS-CoV Urbani,[1],0.5
same,Binding of serum 37 to linear peptides of protein X5 of SARS-CoV Urbani,[1],0.7
same,Binding of serum 37 to looped/cyclic peptides of protein X5 of SARS-CoV Urbani,[1],0.5
same,Binding of serum 62 to linear peptides of protein X5 of SARS-CoV Urbani,[1],0.8
same,Binding of serum 62 to looped/cyclic peptides of protein X5 of SARS-CoV Urbani,[1],0.7
same,Binding of serum London to linear peptides of protein X5 of SARS-CoV Urbani,[1],0.7
same,Binding of serum London to looped/cyclic peptides of protein X5 of SARS-CoV Urbani,[1],0.2
same,Binding of serum SARS-green to linear peptides of protein X5 of SARS-CoV Urbani,[1],0.6
same,Binding of serum SARS-green to looped/cyclic peptides of protein X5 of SARS-CoV Urbani,[1],0.4
same,Binding of serum SARS-yellow to linear peptides of protein X5 of SARS-CoV Urbani,[1],0.3
same,Binding of serum SARS-yellow to looped/cyclic peptides of protein X5 of SARS-CoV Urbani,[1],0.8
same,Rabbit serum linear peptides,[2],0.9
same,Rabbit serum looped peptides,[2],0.1
same,Binding of Control Serum Blood-Bank to Looped peptides,[3],0.4
same,Binding of Control serum Blood-bank to linear peptides,[3],0.7
same,Binding of Control serum LUMC to linear peptides,[3],0.5
same,Binding of Control serum LUMC to looped peptides,[3],0.6
KSKNPLLYDANYFVC,Binding of serum 1a to linear peptides of protein X1 of SARS-CoV Urbani,[1],0.7
same,Binding of serum 1a to looped/cyclic peptide (PEPSCAN-ELISA),[1],0.6
same,Binding of serum 1b to linear peptides of protein X1 of SARS-CoV Urbani,[1],0.4
same,Binding of serum 1b to looped/cyclic peptide (PEPSCAN-ELISA),[1],0.5
same,Binding of serum 2 to linear peptides of protein X1 of SARS-CoV Urbani,[1],0.4
same,Binding of serum 2 to looped/cyclic peptide (PEPSCAN-ELISA),[1],0.4
same,Binding of serum 6 to linear peptides of protein X1 of SARS-CoV Urbani,[1],0.4
same,Binding of serum 6 to looped/cyclic peptide (PEPSCAN-ELISA),[1],0.3
same,Binding of serum 37 to linear peptides of protein X1 of SARS-CoV Urbani,[1],0.5
same,Binding of serum 37 to looped/cyclic peptide (PEPSCAN-ELISA),[1],0.6
same,Binding of serum 62 to linear peptides of protein X1 of SARS-CoV Urbani,[1],0.4
same,Binding of serum 62 to looped/cyclic peptide (PEPSCAN-ELISA),[1],0.6
same,Binding of serum London to linear peptides of protein X1 of SARS-CoV Urbani,[1],0.2
same,Binding of serum London to looped/cyclic peptide (PEPSCAN-ELISA),[1],0.2
same,Binding of serum SARS-green to linear peptides of protein X1 of SARS-CoV Urbani,[1],0.2
same,Binding of serum SARS-green to looped/cyclic peptide (PEPSCAN-ELISA),[1],0.4
same,Binding of serum SARS-yellow to linear peptides of protein X1 of SARS-CoV Urbani,[1],0.3
same,Binding of serum SARS-yellow to looped/cyclic peptide (PEPSCAN-ELISA),[1],0.4
same,Binding of a rabbit serum to linear peptides,[2],0.1
same,Binding of a rabbit serum to looped peptides,[2],0.6
same,Binding of Control Serum Blood-Bank to Looped peptides,[3],0.5
same,Binding of Control serum Blood-bank to linear peptides,[3],0.3
same,Binding of Control serum LUMC to linear peptides,[3],0.7
same,Binding of Control serum LUMC to looped peptides,[3],0.6
IVTRPLMESELVIGA,Binding of serum 1a to linear peptides of protein M of SARS-CoV Urbani,[1],0.8
same,Binding of serum 1b to linear peptides of protein M of SARS-CoV Urbani,[1],0.7
same,Binding of serum 2 to linear peptides of protein M of SARS-CoV Urbani,[1],0.6
same,Binding of serum 6 to linear peptides of protein M of SARS-CoV Urbani,[1],0.4
same,Binding of serum 37 to linear peptides of protein M of SARS-CoV Urbani,[1],0.6
same,Binding of serum 62 to linear peptides of protein M of SARS-CoV Urbani,[1],0.6
same,Binding of serum London to linear peptides of protein M of SARS-CoV Urbani,[1],0.3
same,Binding of serum SARS-green to linear peptides of protein M of SARS-CoV Urbani,[1],0.6
same,Binding of serum SARS-yellow to linear peptides of protein M of SARS-CoV Urbani,[1],0.5
same,"Recognition of the peptide by sera of SARS-CoV infected individuals, and form (linear, looped/cyclic) in which it is recognized",[1],recognized in looped/cyclic form
same,Rabbit serum linear peptides,[2],0.1
same,Rabbit serum looped peptides,[2],0.4
same,Binding of Control Serum Blood-Bank to Looped peptides of the protein M of SARS-CoV Urbani,[3],0.9
same,Binding of Control serum Blood-bank to linear peptides of the protein M of SARS-CoV Urbani,[3],0.7
same,Binding of Control serum LUMC to linear peptides of the protein M of SARS-CoV Urbani,[3],0.8
same,Binding of Control serum LUMC to looped peptides of the protein M of SARS-CoV Urbani,[3],1.0

# Reference: patent publication US20070128217A1 (priority 2003, published 2007)
